Measured values as given in patent publication US20030186967A1, “Acylresorcinol derivatives are selective vitronectin receptor inhibitors” (American Home Products Corporation, priority 1998, published 2003).

Target: T1, Vitronectin receptor αVβ3 (Homo sapiens, UniProt P05106+P06756)
T1 construct: expressed in transfected cells; host or cells: 512P5 cells (plasma membrane preparation)
Test: Vitronectin Receptor αVβ3 Binding Assay
Settings: read-out: VnR (IC50μM)

T1 sequence (P06756 31-889 limits assumed): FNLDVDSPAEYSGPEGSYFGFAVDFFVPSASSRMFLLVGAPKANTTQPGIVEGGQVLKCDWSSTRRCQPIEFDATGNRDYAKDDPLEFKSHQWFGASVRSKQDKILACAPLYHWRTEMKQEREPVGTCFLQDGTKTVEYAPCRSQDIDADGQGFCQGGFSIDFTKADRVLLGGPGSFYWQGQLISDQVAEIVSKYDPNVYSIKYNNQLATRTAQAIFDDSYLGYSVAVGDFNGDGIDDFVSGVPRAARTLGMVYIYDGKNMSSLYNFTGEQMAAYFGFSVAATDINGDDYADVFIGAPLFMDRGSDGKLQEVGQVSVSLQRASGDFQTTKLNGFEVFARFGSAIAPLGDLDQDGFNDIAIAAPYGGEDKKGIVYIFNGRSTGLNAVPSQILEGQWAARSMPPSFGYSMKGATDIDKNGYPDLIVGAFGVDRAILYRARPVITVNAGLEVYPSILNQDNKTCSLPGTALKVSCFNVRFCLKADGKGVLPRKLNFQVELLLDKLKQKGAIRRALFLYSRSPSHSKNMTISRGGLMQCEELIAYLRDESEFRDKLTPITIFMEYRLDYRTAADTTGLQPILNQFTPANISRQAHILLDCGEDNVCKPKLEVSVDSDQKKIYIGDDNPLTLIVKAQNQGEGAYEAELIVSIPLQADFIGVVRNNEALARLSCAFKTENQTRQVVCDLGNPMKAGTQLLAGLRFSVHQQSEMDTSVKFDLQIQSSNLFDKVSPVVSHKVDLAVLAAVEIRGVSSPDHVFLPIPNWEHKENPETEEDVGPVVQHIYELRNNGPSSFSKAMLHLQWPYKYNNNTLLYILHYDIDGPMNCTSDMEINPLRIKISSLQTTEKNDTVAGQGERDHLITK
T1 sequence (P06756 891-1048 partner limits assumed): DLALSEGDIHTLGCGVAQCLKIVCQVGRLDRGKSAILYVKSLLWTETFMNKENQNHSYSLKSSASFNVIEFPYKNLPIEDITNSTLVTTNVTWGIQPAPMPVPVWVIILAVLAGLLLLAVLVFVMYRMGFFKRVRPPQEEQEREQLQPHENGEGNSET
T1 sequence (P05106 27-788): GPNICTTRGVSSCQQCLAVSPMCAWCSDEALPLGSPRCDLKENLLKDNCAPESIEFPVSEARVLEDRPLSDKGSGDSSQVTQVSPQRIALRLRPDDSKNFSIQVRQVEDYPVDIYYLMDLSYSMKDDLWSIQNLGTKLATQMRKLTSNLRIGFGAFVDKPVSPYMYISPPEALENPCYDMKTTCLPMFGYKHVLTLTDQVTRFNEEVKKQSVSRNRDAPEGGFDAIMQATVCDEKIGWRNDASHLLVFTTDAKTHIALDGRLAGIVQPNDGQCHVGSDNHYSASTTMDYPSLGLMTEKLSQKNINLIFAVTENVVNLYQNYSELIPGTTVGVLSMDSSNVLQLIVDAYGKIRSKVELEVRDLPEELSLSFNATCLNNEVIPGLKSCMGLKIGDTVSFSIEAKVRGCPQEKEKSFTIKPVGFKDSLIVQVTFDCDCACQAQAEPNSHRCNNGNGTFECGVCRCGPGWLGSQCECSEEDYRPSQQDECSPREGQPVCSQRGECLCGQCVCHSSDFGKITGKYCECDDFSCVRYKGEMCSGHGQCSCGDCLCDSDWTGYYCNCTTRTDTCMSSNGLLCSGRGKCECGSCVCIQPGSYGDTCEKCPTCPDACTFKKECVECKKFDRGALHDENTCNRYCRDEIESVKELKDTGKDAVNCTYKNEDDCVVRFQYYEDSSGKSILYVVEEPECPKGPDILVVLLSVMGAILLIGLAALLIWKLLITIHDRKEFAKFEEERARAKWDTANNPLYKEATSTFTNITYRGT

| SMILES | IC50 [µM] |
| --- | --- |
| CCCCC(=O)N[C@@H](CNC(=O)c1ccc(OCCNC(=N)N)cc1O)C(=O)O [Example 193, (2S)-3-{[4-(2-{[amino(imino)methyl]amino}ethoxy)-2-hydroxybenzoyl]amino}-2-(pentanoylamino)propanoic acid] | > 1 |
| CC(C)(C)CC(=O)N[C@@H](CNC(=O)c1ccc(OCCNC(=N)N)cc1O)C(=O)O [Example 194] | > 1 |
| CC1(C)C(C(=O)N[C@@H](CNC(=O)c2ccc(OCCNC(=N)N)cc2O)C(=O)O)C1(C)C [Example 195, (2S)-3-{[4-(2-{[amino(imino)methyl]amino}ethoxy)-2-hydroxybenzoyl]amino}-2-{[(2,2,3,3-tetramethylcyclopropyl)carbonyl]amino}propanoic acid] | > 1 |
| N=C(N)NCCOc1ccc(C(=O)NC[C@H](NC(=O)CC23CC4CC(CC(C4)C2)C3)C(=O)O)c(O)c1 [Example 196, (2S)-2-{[2-(1-adamantyl)acetyl]amino}-3-{[4-(2-{[amino(imino)methyl]amino}-ethoxy)-2-hydroxybenzoyl]amino}propanoic acid] | 5.71 |
| C#CCCC(=O)N[C@@H](CNC(=O)c1ccc(OCCNC(=N)N)cc1O)C(=O)O [Example 197, (2S)-3-{[4-(2-{[amino(imino)methyl]amino}ethoxy)-2-hydroxybenzoyl]amino}-2-(pent-4-ynoylamino)propanoic acid] | > 1 |
| N=C(N)NCCOc1ccc(C(=O)NC[C@H](NC(=O)C2CCCCC2)C(=O)O)c(O)c1 [Example 198, (2S)-3-{[4-(2-{[amino(imino)methyl]amino}ethoxy)-2-hydroxybenzoyl]amino}-2-[(cyclohexylcarbonyl)amino]propanoic acid] | > 1 |
| N=C(N)NCCOc1ccc(C(=O)NC[C@H](NC(=O)Cc2ccccc2)C(=O)O)c(O)c1 [Example 199, (2S)-3-{[4-(2-{[amino(imino)methyl]amino}ethoxy)-2-hydroxybenzoyl]amino}-2-[(2-phenylacetyl)amino]propanoic acid] | 14.7 |
| N=C(N)NCCOc1ccc(C(=O)NC[C@H](NC(=O)CCc2ccccc2)C(=O)O)c(O)c1 [Example 200, (2S)-3-{[4-(2-{[amino(imino)methyl]amino}ethoxy)-2-hydroxybenzoyl]amino}-2-[(3-phenylpropanoyl)amino]propanoic acid] | > 1 |
| N=C(N)NCCOc1ccc(C(=O)NC[C@H](NC(=O)CC2CCCCC2)C(=O)O)c(O)c1 [Example 201, (2S)-3-{[4-(2-{[amino(imino)methyl]amino}ethoxy)-2-hydroxybenzoyl]amino}-2-[(2-cyclohexylacetyl)amino]propanoic acid] | 13.2 |
| N=C(N)NCCOc1ccc(C(=O)NC[C@H](NC(=O)/C=C/c2ccccc2)C(=O)O)c(O)c1 [Example 202, (2S)-3-{[4-(2-{[amino(imino)methyl]amino}ethoxy)-2-hydroxybenzoyl]amino}-2-{[(E)-3-phenylprop-2-enoyl]amino}propanoic acid] | > 1 |
| N=C(N)NCCOc1ccc(C(=O)NC[C@H](NC(=O)c2ccccc2Cl)C(=O)O)c(O)c1 [Example 203, (2S)-3-{[4-(2-{[amino(imino)methyl]amino}ethoxy)-2-hydroxybenzoyl]amino}-2-[(2-chlorobenzoyl)amino]propanoic acid] | 14.1 |
| Cc1ccccc1C(=O)N[C@@H](CNC(=O)c1ccc(OCCNC(=N)N)cc1O)C(=O)O [Example 204, (2S)-3-{[4-(2-{[amino(imino)methyl]amino}ethoxy)-2-hydroxybenzoyl]amino}-2-[(2-methylbenzoyl)amino]propanoic acid] | 7.48 |
| COc1ccccc1C(=O)N[C@@H](CNC(=O)c1ccc(OCCNC(=N)N)cc1O)C(=O)O [Example 205, (2S)-3-{[4-(2-{[amino(imino)methyl]amino}ethoxy)-2-hydroxybenzoyl]amino}-2-[(2-methoxybenzoyl)amino]propanoic acid] | > 1 |
| N=C(N)NCCOc1ccc(C(=O)NC[C@H](NC(=O)c2ccc(Cl)cc2)C(=O)O)c(O)c1 [Example 206, (2S)-3-{[4-(2-{[amino(imino)methyl]amino}ethoxy)-2-hydroxybenzoyl]amino}-2-[(4-chlorobenzoyl)amino]propanoic acid] | > 1 |
| Cc1ccc(C(=O)N[C@@H](CNC(=O)c2ccc(OCCNC(=N)N)cc2O)C(=O)O)cc1 [Example 207, (2S)-3-{[4-(2-{[amino(imino)methyl]amino}ethoxy)-2-hydroxybenzoyl]amino}-2-[(4-methylbenzoyl)amino]propanoic acid] | > 1 |
| COc1ccc(C(=O)N[C@@H](CNC(=O)c2ccc(OCCNC(=N)N)cc2O)C(=O)O)cc1 [Example 208, (2S)-3-{[4-(2-{[amino(imino)methyl]amino}ethoxy)-2-hydroxybenzoyl]amino-}-2-[(4-methoxybenzoyl)amino]propanoic acid] | > 1 |
| N=C(N)NCCOc1ccc(C(=O)NC[C@H](NC(=O)c2cccnc2)C(=O)O)c(O)c1 [Example 209, (2S)-3-{[4-(2-{[amino(imino)methyl]amino}ethoxy)-2-hydroxybenzoyl]amino}-2-[(pyridin-3-ylcarbonyl)amino]propanoic acid] | > 1 |
| N=C(N)NCCOc1ccc(C(=O)NC[C@H](NC(=O)c2ccncc2)C(=O)O)c(O)c1 [Example 210, (2S)-3-{[4-(2-{[amino(imino)methyl]amino}ethoxy)-2-hydroxybenzoyl]amino}-2-(isonicotinoylamino)propanoic acid] | > 1 |
| Cc1cc(C(=O)N[C@@H](CNC(=O)c2ccc(OCCNC(=N)N)cc2O)C(=O)O)c(C)o1 [Example 211, (2S)-3-{[4-(2-{[amino(imino)methyl]amino}ethoxy)-2-hydroxybenzoyl]amino}-2-[(2,5-dimethyl-3-furoyl)amino]propanoic acid] | > 1 |
| N=C(N)NCCOc1ccc(C(=O)NC[C@H](NC(=O)c2ccccc2Br)C(=O)O)c(O)c1 [Example 212, (2S)-3-{[4-(2-{[amino(imino)methyl]amino}ethoxy)-2-hydroxybenzoyl]amino-}-2-[(2-bromobenzoyl)amino]propanoic acid] | 13.1 |
| N=C(N)NCCOc1ccc(C(=O)NC[C@H](NC(=O)c2ccc(Br)cc2)C(=O)O)c(O)c1 [Example 213, (2S)-3-{[4-(2-{[amino(imino)methyl]amino}ethoxy)-2-hydroxybenzoyl]amino}-2-[(4-bromobenzoyl)amino]propanoic acid] | > 1 |
| Cc1cccc(C(=O)N[C@@H](CNC(=O)c2ccc(OCCNC(=N)N)cc2O)C(=O)O)c1C [Example 214, (2S)-3-{[4-(2-{[amino(imino)methyl]amino}ethoxy)-2-hydroxybenzoyl]amino}-2-[(2,3-dimethylbenzoyl)amino]propanoic acid] | 2.31 |

Further lines, results first:

| IC50 [µM] | SMILES |
| --- | --- |
| > 1 | N=C(N)NCCOc1ccc(C(=O)NC[C@H](NC(=O)c2cccc(Cl)c2)C(=O)O)c(O)c1 [Example 215, (2S)-3-{[4-(2-{[amino(imino)methyl]amino}ethoxy)-2-hydroxybenzoyl]amino}-2-[(3-chlorobenzoyl)amino]propanoic acid] |
| 1.8 | CC(C)(C)COC(=O)N[C@@H](CNC(=O)c1ccc(OCCNC(=O)NCc2ccccc2)cc1O)C(=O)O [Example 219, (2S)-3-{[4-(2-{[(benzylamino)carbonyl]amino}ethoxy)-2-hydroxy-benzoyl]amino}-2-{[(neopentyloxy)carbonyl]amino}propanoic acid] |
| 8.8 | O=C(NCCOc1ccc(C(=O)NC[C@H](NC(=O)OCc2ccccc2)C(=O)O)c(O)c1)NCc1ccccc1 [Example 220, (2S)-3-{[4-(2-{[(benzylamino)carbonyl]amino}ethoxy)-2-hydroxybenzoyl]amino}-2-{[(benzyloxy)carbonyl]amino}propanoic acid] |
| 22.8 | COC(=O)N[C@@H](CNC(=O)c1ccc(OCCNC(=O)NCc2ccccc2)cc1O)C(=O)O [Example 221, (2S)-3-{[4-(2-{[(benzylamino)carbonyl]amino}ethoxy)-2-hydroxybenzoyl]amino}-2-[(methoxycarbonyl)amino]propanoic acid] |
| 20.8 | CCOC(=O)N[C@@H](CNC(=O)c1ccc(OCCNC(=O)NCc2ccccc2)cc1O)C(=O)O [Example 222, (2S)-3-{[4-(2-{[(benzylamino)carbonyl]amino}ethoxy)-2-hydroxybenzoyl]amino}-2-[(ethoxycarbonyl)amino]propanoic acid] |
| 5.5 | CCCOC(=O)N[C@@H](CNC(=O)c1ccc(OCCNC(=O)NCc2ccccc2)cc1O)C(=O)O [Example 223, (2S)-3-{[4-(2-{[(benzylamino)carbonyl]amino}ethoxy)-2-hydroxybenzoyl]amino}-2-[(propoxycarbonyl)amino]propanoic acid] |
| 4.1 | CC(C)OC(=O)N[C@@H](CNC(=O)c1ccc(OCCNC(=O)NCc2ccccc2)cc1O)C(=O)O [Example 224, (2S)-3-{[4-(2-{[(benzylamino)carbonyl]amino}ethoxy)-2-hydroxybenzoyl]amino}-2-[(isopropoxycarbonyl)amino]propanoic acid] |
| 5 | C=CCOC(=O)N[C@@H](CNC(=O)c1ccc(OCCNC(=O)NCc2ccccc2)cc1O)C(=O)O [Example 225, (2S)-2-{[(allyloxy)carbonyl]amino}-3-{[4-(2-{[(benzylamino)carbonyl]amino}-ethoxy)-2-hydroxybenzoyl]amino}propanoic acid] |
| 5.2 | C=CCCOC(=O)N[C@@H](CNC(=O)c1ccc(OCCNC(=O)NCc2ccccc2)cc1O)C(=O)O [Example 226, (2S)-3-{[4-(2-{[(benzylamino)carbonyl]amino}ethoxy)-2-hydroxybenzoyl]amino}-2-{[(but-3-enyloxy)carbonyl]amino}propanoic acid] |
| 5.1 | C#CCOC(=O)N[C@@H](CNC(=O)c1ccc(OCCNC(=O)NCc2ccccc2)cc1O)C(=O)O [Example 227, (2S)-3-{[4-(2-{[(benzylamino)carbonyl]amino}ethoxy)-2-hydroxybenzoyl]amino}-2-{[(prop-2-ynyloxy)carbonyl]amino}propanoic acid] |
| 10.2 | CCCCCCOC(=O)N[C@@H](CNC(=O)c1ccc(OCCNC(=O)NCc2ccccc2)cc1O)C(=O)O [Example 228, (2S)-3-{[4-(2-{[(benzylamino)carbonyl]amino}ethoxy)-2-hydroxybenzoyl]amino}-2-{[(hexyloxy)carbonyl]amino}propanoic acid] |
